Results on 19 compounds are retold here after US20230257372A1 (CHONG KUN DANG PHARMACEUTICAL CORP., priority 2020, published 2023).

The target in assay [1] is T1, human recombinant HDAC1 (Homo sapiens, UniProt Q13547).
T1 construct: purchased Enzo Life Science, Inc. BML-SE456
Kind of assay: HDAC1 enzyme activity inhibition (HDAC Fluorimetric Drug Discovery Kit). The format is biochemical. Particulars: human recombinant HDAC1; IC50 calculated with GraphPad Prism; read-out: HDAC1. The method in brief:
(§1)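 Each isoform is run in the same format: compound dilutions (5-fold steps), 10 μM substrate, […] enzyme, one hour at 30° C, then 30 minutes with developer before fluorescence readout.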

Assay [2] deals with T2, human recombinant HDAC6 (Homo sapiens, UniProt Q9UBN7).
T2 construct: purchased Calbiochem Inc. 382180
T2 sequence (Q9UBN7 1-1215): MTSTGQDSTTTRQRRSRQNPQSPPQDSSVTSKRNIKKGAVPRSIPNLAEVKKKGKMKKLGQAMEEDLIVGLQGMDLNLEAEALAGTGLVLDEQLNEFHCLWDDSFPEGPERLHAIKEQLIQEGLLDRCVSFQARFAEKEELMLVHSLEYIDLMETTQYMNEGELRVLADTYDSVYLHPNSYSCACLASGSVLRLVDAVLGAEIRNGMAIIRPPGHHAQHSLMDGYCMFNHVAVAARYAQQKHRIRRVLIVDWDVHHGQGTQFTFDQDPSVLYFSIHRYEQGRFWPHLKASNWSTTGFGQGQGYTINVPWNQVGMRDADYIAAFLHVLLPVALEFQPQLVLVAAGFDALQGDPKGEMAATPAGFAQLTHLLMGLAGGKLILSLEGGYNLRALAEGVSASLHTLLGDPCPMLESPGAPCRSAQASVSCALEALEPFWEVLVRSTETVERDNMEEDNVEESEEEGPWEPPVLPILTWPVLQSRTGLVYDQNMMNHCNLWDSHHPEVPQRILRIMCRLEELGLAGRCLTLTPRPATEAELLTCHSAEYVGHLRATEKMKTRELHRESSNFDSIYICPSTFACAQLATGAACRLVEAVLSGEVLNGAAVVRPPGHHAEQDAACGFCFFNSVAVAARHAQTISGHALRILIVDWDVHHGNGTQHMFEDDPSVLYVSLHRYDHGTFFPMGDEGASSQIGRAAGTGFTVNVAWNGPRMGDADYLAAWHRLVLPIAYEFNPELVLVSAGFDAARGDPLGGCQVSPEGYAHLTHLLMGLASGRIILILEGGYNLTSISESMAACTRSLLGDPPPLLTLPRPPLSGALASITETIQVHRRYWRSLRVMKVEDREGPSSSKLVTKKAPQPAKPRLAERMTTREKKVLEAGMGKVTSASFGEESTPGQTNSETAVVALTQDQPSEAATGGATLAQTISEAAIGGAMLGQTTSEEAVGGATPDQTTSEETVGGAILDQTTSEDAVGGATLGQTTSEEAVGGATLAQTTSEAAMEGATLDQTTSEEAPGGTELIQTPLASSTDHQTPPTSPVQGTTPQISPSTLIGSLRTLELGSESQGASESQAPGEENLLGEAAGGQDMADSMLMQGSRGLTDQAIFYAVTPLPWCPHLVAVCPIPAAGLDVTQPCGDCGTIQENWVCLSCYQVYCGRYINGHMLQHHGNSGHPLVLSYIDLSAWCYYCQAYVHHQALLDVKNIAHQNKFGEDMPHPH
Kind of assay: HDAC6 enzyme activity inhibition (HDAC Fluorimetric Drug Discovery Kit). It counts as biochemical. The following applies: for HDAC6 selectivity (fold): HDAC1 IC50 / HDAC6 IC50; for IC50: human recombinant HDAC6, IC50 calculated with GraphPad Prism. A digest of the protocol: as §1

T1 sequence (Q13547 whole entry): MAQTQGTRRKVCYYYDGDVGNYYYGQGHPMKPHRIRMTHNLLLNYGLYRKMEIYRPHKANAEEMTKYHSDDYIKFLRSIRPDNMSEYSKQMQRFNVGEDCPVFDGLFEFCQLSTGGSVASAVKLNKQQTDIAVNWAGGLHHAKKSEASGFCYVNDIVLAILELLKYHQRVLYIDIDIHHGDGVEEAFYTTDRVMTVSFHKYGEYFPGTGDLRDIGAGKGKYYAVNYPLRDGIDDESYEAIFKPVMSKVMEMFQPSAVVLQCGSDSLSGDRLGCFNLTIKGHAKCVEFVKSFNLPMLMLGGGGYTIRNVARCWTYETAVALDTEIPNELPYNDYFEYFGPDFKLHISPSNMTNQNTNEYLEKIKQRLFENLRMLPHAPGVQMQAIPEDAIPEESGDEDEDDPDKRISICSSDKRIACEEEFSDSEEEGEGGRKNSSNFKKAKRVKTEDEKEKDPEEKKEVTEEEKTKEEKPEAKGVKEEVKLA

`O=c1ccc(-c2cn(Cc3ccc(-c4nnc(C(F)F)o4)cn3)nn2)c[nH]1` [Compound 3845, 5-(1-((5-(5-(difluoromethyl)-1,3,4-oxadiazol-2-yl)pyridin-2-yl)methyl)-1H-1,2,3-triazol-4-yl)pyridin-2(1H)-one]: the IC50 in assay [1] is over 50000 nM. Also, in assay [2], the “HDAC6 selectivity (fold)” value is 3105 fold and the IC50 is 16.1 nM.
With `FC(F)c1nnc(-c2ccc(Cn3cc(C4CCCC4)nn3)nc2)o1` [Compound 3846, 2-(6-((4-cyclopentyl-1H-1,2,3-triazol-1-yl)methyl)pyridin-3-yl)-5-(difluoromethyl)-1,3,4-oxadiazole], the IC50 in assay [1] is over 50000 nM. In assay [2], the “HDAC6 selectivity (fold)” value was 630 fold and the IC50 is 79.3 nM.
Take `Fc1ccc(-c2cn(Cc3ccc(-c4nnc(C(F)F)o4)cn3)nn2)cc1` [Compound 3855]: the IC50 in assay [1] is over 50000 nM. For the same compound, in assay [2], the “HDAC6 selectivity (fold)” value amounted to 1818 fold and the IC50 was 27.5 nM.
In the case of `Cc1ccccc1-c1cn(Cc2ccc(-c3nnc(C(F)F)o3)cn2)nn1` [Compound 3860, 2-(difluoromethyl)-5-(6-((4-(o-tolyl)-1H-1,2,3-triazol-1-yl)methyl)pyridin-3-yl)-1,3,4-oxadiazole], the IC50 in assay [1] is over 50000 nM; in assay [2] it was 128 nM. The “HDAC6 selectivity (fold)” value in assay [2] came out at 391 fold.
Regarding `FC(F)c1nnc(-c2ccc(Cn3cc(-c4ccco4)nn3)nc2)o1` [Compound 3861, 2-(difluoromethyl)-5-(6-((4-(furan-2-yl)-1H-1,2,3-triazol-1-yl)methyl)pyridin-3-yl)-1,3,4-oxadiazole], the figures for the IC50 in assay [1] and in assay [2] were over 50000 nM and 54.2 nM, respectively. Moreover, in assay [2], the “HDAC6 selectivity (fold)” value was found to be 922 fold.
As for `FC(F)c1nnc(-c2ccc(Cn3cc(C4=CCCCC4)nn3)nc2)o1` [Compound 3879, 2-(6-((4-(cyclohex-1-ene-1-yl)-1H-1,2,3-triazol-1-yl)methyl)pyridin-3-yl)-5-(difluoromethyl)-1,3,4-oxadiazole], the results for the IC50 in assay [1] and in assay [2] were over 50000 nM and 64.6 nM, respectively. Besides, the “HDAC6 selectivity (fold)” value in assay [2] turned out to be 773 fold.
Consider `FC(F)c1nnc(-c2ccc(Cn3cc(C4CCCCC4)nn3)nc2)o1` [Compound 3880, 2-(6-((4-cyclohexyl-1H-1,2,3-triazol-1-yl)methyl)pyridin-3-yl)-5-(difluoromethyl)-1,3,4-oxadiazole], for which the IC50 is over 50000 nM in assay [1] and 79.7 nM in assay [2]. The “HDAC6 selectivity (fold)” value in assay [2] was found to be 627 fold.
Turning to `FC(F)c1nnc(-c2ccc(Cn3cc(-c4ccc(Cl)nc4)nn3)nc2)o1` [Compound 3882, 2-(6-((4-(6-chloropyridin-3-yl)-1H-1,2,3-triazol-1-yl)methyl)pyridin-3-yl)-5-(difluoromethyl)-1,3,4-oxadiazole], the IC50 in assay [1] is over 50000 nM. Besides, in assay [2], the “HDAC6 selectivity (fold)” value is on record as 988 fold and the IC50 is 50.6 nM.
In the case of `Cc1cncc(-c2cn(Cc3ccc(-c4nnc(C(F)F)o4)cn3)nn2)c1` [Compound 3884, 2-(difluoromethyl)-5-(6-((4-(5-methylpyridin-3-yl)-1H-1,2,3-triazol-1-yl)methyl)pyridin-3-yl)-1,3,4-oxadiazole], in assay [1], the IC50 is over 50000 nM. For the same compound, in assay [2], the “HDAC6 selectivity (fold)” value amounted to 1329 fold and the IC50 was 37.6 nM.
For the compound `O=C(c1cccc(-c2cn(Cc3ccc(-c4nnc(C(F)F)o4)cn3)nn2)c1)N1CCOCC1` [Compound 3885, (3-(1-((5-(5-(difluoromethyl)-1,3,4-oxadiazol-2-yl)pyridin-2-yl)methyl)-1H-1,2,3-triazol-4-yl)phenyl)(morpholino)methanone], the IC50 in assay [1] was over 50000 nM. In assay [2], the “HDAC6 selectivity (fold)” value is 920 fold and the IC50 was 54.3 nM.
On to `CN1CCN(C(=O)c2cccc(-c3cn(Cc4ccc(-c5nnc(C(F)F)o5)cn4)nn3)c2)CC1` [Compound 3887, (3-(1-((5-(5-(difluoromethyl)-1,3,4-oxadiazol-2-yl)pyridin-2-yl)methyl)-1H-1,2,3-triazol-4-yl)phenyl)(4-methylpiperazin-1-yl)methanone], for which the IC50 in assay [1] is over 50000 nM; in assay [2] it was 57.1 nM. Moreover, in assay [2], the “HDAC6 selectivity (fold)” value is 875 fold.
As to `CN(C(=O)C(C)(C)C)c1cccc(-c2cn(Cc3ccc(-c4nnc(C(F)F)o4)cn3)nn2)c1` [Compound 3889, N-(3-(1-((5-(5-(difluoromethyl)-1,3,4-oxadiazol-2-yl)pyridin-2-yl)methyl)-1H-1,2,3-triazol-4-yl)phenyl)-N-methylpivalamide], the IC50 in assay [1] is over 50000 nM; in assay [2], 41.3 nM. Besides, the “HDAC6 selectivity (fold)” value in assay [2] was 1210 fold.
In the case of `CCOC(=O)N(C)c1cccc(-c2cn(Cc3ccc(-c4nnc(C(F)F)o4)cn3)nn2)c1` [Compound 3890], in assay [1], the IC50 is over 50000 nM. Further, in assay [2], the “HDAC6 selectivity (fold)” value was determined as 1319 fold and the IC50 is 37.9 nM.
As to `COC(=O)N1CCC(c2cn(Cc3ccc(-c4nnc(C(F)F)o4)cn3)nn2)CC1` [Compound 3891, Methyl4-(1-((5-(5-(difluoromethyl)-1,3,4-oxadiazol-2-yl)pyridin-2-yl)methyl)-1H-1,2,3-triazol-4-yl)piperidin-1-carboxylate], the IC50 in assay [1] is over 50000 nM. In addition, in assay [2], the “HDAC6 selectivity (fold)” value is reported as 287 fold and the IC50 is 174 nM.
Turning to `CCOC(=O)N1CCC(c2cn(Cc3ccc(-c4nnc(C(F)F)o4)cn3)nn2)CC1` [Compound 3892, Ethyl4-(1-((5-(5-(difluoromethyl)-1,3,4-oxadiazol-2-yl)pyridin-2-yl)methyl)-1H-1,2,3-triazol-4-yl)piperidin-1-carboxylate], the IC50 in assay [1] was over 50000 nM. In assay [2], the “HDAC6 selectivity (fold)” value is 357 fold and the IC50 is 140 nM.
For `CC(C)(C)C(=O)N1CCC(c2cn(Cc3ccc(-c4nnc(C(F)F)o4)cn3)nn2)CC1` [Compound 3893, 1-(4-(1-((5-(5-(difluoromethyl)-1,3,4-oxadiazol-2-yl)pyridin-2-yl)methyl)-1H-1,2,3-triazol-4-yl)piperidin-1-yl)-2,2-dimethylpropan-1-one], in that order: over 50000 nM, 326 fold and 153 nM.
As for `CC(C)(F)C(=O)N1CCC(c2cn(Cc3ccc(-c4nnc(C(F)F)o4)cn3)nn2)CC1` [Compound 3894], the IC50 is over 50000 nM in assay [1] and 100 nM in assay [2]. The “HDAC6 selectivity (fold)” value in assay [2] came out at 498 fold.
For the compound `CC(C)(F)CN1CCC(c2cn(Cc3ccc(-c4nnc(C(F)F)o4)cn3)nn2)CC1` [Compound 3895, 2-(difluoromethyl)-5-(6-((4-(1-(2-fluoro-2-methylpropyl)piperidin-4-yl)-1H-1,2,3-triazol-1-yl)methyl)pyridin-3-yl)-1,3,4-oxadiazole], in assay [1], the IC50 is over 50000 nM. Further, in assay [2], the “HDAC6 selectivity (fold)” value is 171 fold and the IC50 is 293 nM.
For `CCC(F)(CC)CN1CCC(c2cn(Cc3ccc(-c4nnc(C(F)F)o4)cn3)nn2)CC1` [Compound 3896, 2-(difluoromethyl)-5-(6-((4-(1-(2-ethyl-2-fluorobutyl)piperidin-4-yl)-1H-1,2,3-triazol-1-yl)methyl)pyridin-3-yl)-1,3,4-oxadiazole], the IC50 in assay [1] is over 50000 nM. For the same compound, in assay [2], the “HDAC6 selectivity (fold)” value stood at 187 fold and the IC50 was 267 nM.
